Source: US8722725B2, “Caffeoylquinic acid derivatives containing nitrogen, and preparation method, pharmaceutical composition and usage thereof” (Zhejiang Medicine Co., Ltd. Xinchang Pharmaceutical Factory, priority 2007, dated 2014)
Converted amounts (≈) assume the structure as drawn. Where two headings read alike, the source gives them in different places.

How the values were obtained:
Assay type in all cases: cell-based
[1] = tested on: hepatitis B virus (HBV) DNA; experiment: Inhibition of HBV DNA in 2.2.15 cell culture (dot blot hybridization, autoradiography); details: concentration not given
Method: (§1) Anti-hepatitis (HBV) DNA virus in vitro of the above partial compounds is tested. human hepatoma carcinoma cells (Hep G2) in the 2.2.15 cell line are transfected by DNA cloning of hepatitis B virus (HBV), the inhibitory effect on cell toxicity and HBV DNA secretion are studied. Half inhibition concentration (IC50) and half toxicity concentration (TC50) of samples are measured, the inhibition ratio to HBV DNA in the 2.2.15 cell culture are obtained respectively.
Virus strains: human hepatoma carcinoma cells (Hep G2) in 2.2.15 cell line are transfected by DNA cloning of hepatitis B virus (HBV). […]
Test method: The sample is prepared for a 20 mg/ml mother liquor, and is further prepared for a required concentration by using a 2.2.15 cell culture medium. […] Mean cytopathic extent and inhibition ratio of medical solutions for each concentration are calculated. Half toxicity concentration (TC50) and its maximum of non toxicity concentration (TC0) are respectively calculated by the method of Reed-Muench. According to the method of molecular cloning experimental technology, firstly the HBV DNA is extracted from 2.2.15 cells of medical solution of each concentration group and cell control groups, and then a dot blot hybridization and autoradiography of each sample are measured. After measuring IOD value or OD value of every hybridization dot, the inhibition ratio is calculated.

HIV-1 IIIB virus strain = experiment: Inhibitory effect on HIV-1 IIIB in MT-4 cells (P24 antigen ELISA of cell culture supernatant); details: Human immunodeficiency virus 1, IIIB, MT4, 96 h, read-out: IC50 (half inhibition concentration, HIV-1 IIIB)
Method: (§2) Anti-HIV-1 IIIB/H9 in vitro of the above partial compounds is tested. Half inhibition concentration (IC50) of samples and half toxicity concentration (TC50) of samples are respectively measured after culturing MT-4 cells, wherein the cell toxicity is measured by the method of CPE, and the inhibitory effects on HIV-1 IIIB of compounds are measured by method of measuring P24 antigen of cell culture supernatant.
Virus strains: HIV-1 IIIB virus strain
Sample treatment: before using, the sample is prepared for a suitable concentration by being dissolved in DMSO and then is further prepared for a cell culture medium.
Positive control drug: Zidovudine (AZT)
HIV-1 P24 antigen detection kit: Use products of BioMerieux Corporation in Holland.
HIV-1 P24 antigen is measured by the method of ELISA. After counting the MT-4 cells, the cells are infected in the virus dose of 100TCID50 and absorbed for 1.5 h in the incubator of 37° C., 5% CO2 and a saturated humidity. The cells are inoculated in a 96-well plate at the density of 2×10^5 cells/ml. After adding a diluted drug 100 ul/well, the culture of the plate is cultured at the incubator of 37° C., 5% CO2 and a saturated humidity for 4 days (96 h). Cell supernatant is taken out and diluted in the ratio of 1:3000. HIV-1 P24 titer is measured according to the test steps provided by HIV-1 P24 antigen kit. Compared adding drug groups with viral control groups, half inhibition concentration (IC50) of samples and half toxicity concentration (TC50) of samples are respectively calculated

T-lymphocyte MT-4 = experiment: Cell toxicity in MT-4 cells by method of CPE (96 h)
Method: as §2
Test method: The toxicity of drug in cell (TC50 and TC0) is measured by method of CPE. 100 μl cell is inoculated in 96-well plate at a density of 2×10^5 cells/ml. In the meantime, the medical solution 100 μl of 8 kinds of concentration of samples or positive drug zidovudine which are respectively diluted to 3 times are respectively added thereto, each of concentration is placed in 3 wells which are set to a cell control group. The above plates is cultured at the incubator of 37° C., 5% CO2 and a saturated humidity. CPE Cells are observed at the fourth day (96 h) after adding drug, the cytopathic situation is recorded and TC50 and TC0 are calculated.

[2] = tested on: respiratory syncytial virus (RSV), Long strain; experiment: Inhibitory effect on anti-RSV in vitro (CPE in Hep-2 cells, 72 h, Reed-Muench); details: human respiratory syncytial virus, read-out: IC50 (half inhibition concentration, RSV)
Method: Anti-RSV in vitro of the above partial compounds is tested. With Hep-2 cell (human laryngocarcinoma cell) as viral host, Hep-2 cytopathic extent caused by inhibiting RSV is measured and observed for 72 h. Half inhibition concentration (IC50) of samples with respect to respiratory syncytial virus (RSV), its maximum of non toxicity concentration (TC0) and half toxicity concentration (TC50) of samples with respect to Hep-2 cell are respectively calculated by methods of Reed-Muench.
Virus strains: RSV, Long strain
Sample treatment: before using, sample is prepared for a suitable concentration by being dissolved in DMSO, and is diluted to 3 times with a culture medium to form eight dilutions.
Positive control drug: ribavirin (RBV)
(§3) Test method: After Hep-2 cell is cultured in 96-well plate for 24 h, it is infected respiratory syncytial virus (RSV) (200TCID50 infective dose) and absorbed for 4 h to get a viral liquid. Then the viral liquid is discarded. The sample is added thereto according to the above eight dilutions, in the meantime cell control wells of positive drugs, normal cell control wells and viral control wells are set. The cytopathic extent (CPE) is observed for 72 h. Half inhibition concentration (IC50) of samples with respect to respiratory syncytial virus (RSV), its maximum of no toxicity concentration (TC0) and half toxicity concentration (TC50) of samples with respect to Hep-2 cells are respectively calculated by method of Reed-Muench.

[3] = tested on: Hep-2 cell (human laryngocarcinoma cell); experiment: Toxicity of samples with respect to Hep-2 cell (CPE, Reed-Muench); details: 72 h
Method: as §3, with “Anti-RSV in vitro of the above partial compounds is tested. With Hep-2 cell (human laryngocarcinoma cell) as viral host, Hep-2 cytopathic extent caused by inhibiting RSV is measured and observed for 72 h. Half inhibition concentration (IC50) of samples with respect to respiratory syncytial virus (RSV), its maximum of non toxicity concentration (TC0) and half toxicity concentration (TC50) of samples with respect to Hep-2 cell are respectively calculated by methods of Reed-Muench. Sample treatment: before using, sample is prepared for a suitable concentration by being dissolved in DMSO, and is diluted to 3 times with a culture medium to form eight dilutions. Test” for “Test”

[4] = tested on: human hepatoma carcinoma cells (Hep G2) 2.2.15 cell line; experiment: Cell toxicity in 2.2.15 cells (cytopathic cells observed for 8 days, Reed-Muench)
Method: as §1
Virus strains: human hepatoma carcinoma cells (Hep G2) in 2.2.15 cell line are transfected by DNA cloning of hepatitis B virus (HBV).
Sample treatment: the sample is prepared for a suitable concentration by being dissolved in DMSO and preserved at 4° C. before using. When using, the required concentration is prepared by using a 2.2.15 cell culture medium.
Test method: The sample is prepared for a 20 mg/ml mother liquor, and is further prepared for a required concentration by using a 2.2.15 cell culture medium. Then the above solution is diluted to 5 times from 200 μg/ml with the culture medium to form eight kinds of concentrations. The above solution is added to a 96-well cell plate, each of concentration is placed in 3 wells, and the medical solution with the same concentration is changed every 4 days. Cell control group without drug is set to observe cytopathic cell as a target, the cytopathic cell is observed under a microscope for 8 days, wherein full destruction is about 4; 75% of cytopathic cells are about 3; 50% of cytopathic cells are about 2; 25% of cytopathic cells are about 1; no cytopathic cells is about 0. Mean cytopathic extent and inhibition ratio of medical solutions for each concentration are calculated. Half toxicity concentration (TC50) and its maximum of non toxicity concentration (TC0) are respectively calculated by the method of Reed-Muench. According to the method of molecular cloning experimental technology, firstly the HBV DNA is extracted from 2.2.15 cells of medical solution of each concentration group and cell control groups, and then a dot blot hybridization and autoradiography of each sample are measured. After measuring IOD value or OD value of every hybridization dot, the inhibition ratio is calculated.

[5] = RSV Long strain in Hep-2 cell, CPE, 72 h

SMILES | HBV DNA Inhibition ratio (%) [1] | IC50 (HIV-1 IIIB virus strain) [mg/L] | TC50 (half toxicity concentration) (T-lymphocyte MT-4; MT-4 cells, CPE) [mg/L] | IC50 [2, 5] [mg/L] | TC0 (maximum of non toxicity concentration) [3] [µg/mL] | TC50 (half toxicity concentration) [3] [mg/L] | TC50 (half toxicity concentration) (T-lymphocyte MT-4; human) [mg/L] | Cell toxicity TC0 [4] [µg/mL] | Cell toxicity TC50 [4] [mg/L] | IC50 ([2]; HEp-2, 72 h) [mg/L]
Nc1ccn([C@@H]2CS[C@H](CO)O2)c(=O)n1 [3TC, lamivudine, reference compound] | 40.8~49.39% |  |  |  |  |  |  |  |  | 
Cc1cn([C@H]2C[C@H](N=[N+]=[N-])[C@@H](CO)O2)c(=O)[nH]c1=O [AZT, zidovudine, reference compound] |  | 0.0042 (≈ 0.0157 µM) | 20.00 (≈ 74.8 µM) |  |  |  |  |  |  | 
CNC(=O)[C@]1(O)C[C@@H](OC(=O)/C=C/c2ccc(O)c(O)c2)[C@@H](OC(=O)/C=C/c2ccc(O)c(O)c2)[C@H](OC(=O)/C=C/c2ccc(O)c(O)c2)C1 [3-7] | 41.71% | 1.02 (≈ 1.47 µM) |  | > 64.2 | 37.04 | 64.15 (≈ 92.8 µM) | 32.08 (≈ 46.4 µM) | >200 | >200 | 
CNC(=O)[C@]1(OC(=O)/C=C/c2ccc(O)c(O)c2)C[C@@H](O)[C@@H](O)[C@H](OC(=O)/C=C/c2ccc(O)c(O)c2)C1 [3-3] |  |  |  | > 111 | 37.04 | 111.11 (≈ 210 µM) |  | 0.32 | 3.58 | 
O=C(/C=C/c1ccc(O)c(O)c1)O[C@@H]1C[C@](O)(C(=O)NC2CC2)C[C@@H](OC(=O)/C=C/c2ccc(O)c(O)c2)[C@H]1O [1-1] |  |  |  | > 111 | 37.04 | 111.11 (≈ 200 µM) |  | 1.6 | 27.59 | 
CNC(=O)[C@]1(O)C[C@@H](OC(=O)/C=C/c2ccc(O)c(O)c2)[C@@H](O)[C@H](OC(=O)/C=C/c2ccc(O)c(O)c2)C1 [3-1] |  | 1.83 (≈ 3.46 µM) |  | 16.2 (≈ 30.7 µM) | 37.04 | 64.15 (≈ 121 µM) | 32.08 (≈ 60.6 µM) | 1.6 | 27.59 | 
CNC(=O)[C@]1(O)C[C@@H](O)[C@@H](O)[C@H](OC(=O)/C=C/c2ccc(O)c(O)c2)C1 [3-5] |  |  |  | 7.13 (≈ 19.4 µM) | 12.35 | 37.04 (≈ 101 µM) |  | 8 | 89.44 | 
NC(=O)c1ncn([C@@H]2O[C@H](CO)[C@@H](O)[C@H]2O)n1 [RBV, Ribavirin, reference compound] |  |  |  |  |  |  |  |  |  | 1.37 (≈ 5.61 µM)
O=C(/C=C/c1ccc(O)c(O)c1)O[C@@H]1C[C@](OC(=O)/C=C/c2ccc(O)c(O)c2)(C(=O)N2CCCC2)C[C@@H](O)[C@H]1O [2-3] |  |  |  | > 12.3 | 4.12 | 12.35 (≈ 21.7 µM) |  | 0.32 | 3.58 | 
